Experimental data published in ChEMBL document CHEMBL4385651, “Identification and characterization of the first fragment hits for SETDB1 Tudor domain” (Bioorg Med Chem, 2019).
The source made the active and inactive calls. The rule behind the calls is not given here. Where a SMILES comes first, the peptide text is derived from it. [ ]: non-standard residue; d: D form. The star is where a group is joined. X1 = CC(=O)NCc1ccccc1-n1c(C)nnc1CN*; Lys(Me2) = CN(C)CCCC[C@H](N)C(=O)O

How the values were obtained:
[1] = target: T1, Histone-lysine N-methyltransferase SETDB1 (Homo sapiens, UniProt Q15047); test: Binding affinity to N-terminal His6-tagged human SETDB1 Tudor domain (197 to 403 residues) expressed in Escherichia coli BL21(DE3)-pRARE2 cells assessed as induction of HSQC shift at 5 mM by 1H-15 N HSQC-TROSY NMR spectroscopy
[2] = target: T1, Histone-lysine N-methyltransferase SETDB1; test: Binding affinity to N-terminally biotinylated human SETDB1 Tudor domain (197 to 403 residues) expressed in Escherichia coli BL21(DE3)-pRARE2 cells by SPR analysis
[3] = target: T1, Histone-lysine N-methyltransferase SETDB1; test: Binding affinity to N-terminal His6-tagged human SETDB1 Tudor domain (197 to 403 residues) expressed in Escherichia coli BL21(DE3)-pRARE2 cells by ITC assay
[4] = target: T1, Histone-lysine N-methyltransferase SETDB1; test: Binding affinity to N-terminal His6-tagged human SETDB1 Tudor domain (197 to 403 residues) expressed in Escherichia coli BL21(DE3)-pRARE2 cells assessed as induction of HSQC shift at 10 mM by 1H-15 N HSQC-TROSY NMR spectroscopy

## CNC(=O)NCc1ccccc1-n1c(C)nnc1C
[1]
  Activity: inactive

## Cc1nnc2n1-c1ccccc1COC2
[1]
  Activity: Active

## CC(=O)NCc1ccccc1-n1c(C)nnc1C
[2]
  Kd: 3.5 mM
[1]
  Activity: Active
[3]
  Kd: 3.5 mM

## CC(C)(C)NC(=O)[C@@H]1Cc2ccccc2CN1
[4]
  Activity: > 0.2 ppm

## CC(=O)NCc1cc(Cl)ccc1-n1c(C)nnc1C
[2]
  Kd: 2.5 mM

## Cc1nnc(C)n1-c1ccccc1C(=O)O
[1]
  Activity: inactive

## CC(=O)NCc1cc(C#N)ccc1-n1c(C)nnc1C
[2]
  Kd: 10 mM

## CC(=O)NCc1ccccc1-n1c(C)nnc1CNC(=O)CNC(=O)[C@@H](NC(=O)[C@H](CO)NC(=O)[C@@H](N)CCCCN(C)C)[C@@H](C)O (H-[Lys(Me2)]STG-X1)
[2]
  Kd: 1.27 mM
[1]
  Activity: Active

## Cc1nnc(C)n1-c1ccccc1CNS(C)(=O)=O
[2]
  Kd: 4 to 17 mM
[1]
  Activity: Active
[3]
  Kd: 4 to 17 mM

## CC(=O)NCc1cc(Br)ccc1-n1c(C)nnc1C
[2]
  Kd: 2.7 mM

## CC(=O)NCc1cc(C)ccc1-n1c(C)nnc1C
[2]
  Kd: 7.7 mM
